Tested on: 695427-040-R-J1-PDC complex spheroid viability
Test: Anticancer human tumor 695427-040-R-J1-PDC patient-derived colon adenocarcinoma cell line growth inhibition [POLQ]
Settings: for IC50: curve of first compound; for viability, T/C: stronger effect = lower value
Outline: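 Complex spheroid viability model combining PDC tumour cells with endothelial (HUVEC) and MSC stromal cells. Novobiocin, ART-558 or RP6685 were tested singly and in combination with standard and investigational anticancer drugs. Each was titrated in half-log steps from near clinical Cmax, or from 10 microM where Cmax was unknown.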

[1] = second compound 0.0316 µM, first compound 0.0316 µM
[2] = second compound 0.0316 µM, first compound 0.1 µM
[3] = second compound 0.0316 µM, first compound 0.316 µM
[4] = second compound 0.0316 µM, first compound 1 µM
[5] = second compound 0.1 µM, first compound 0.0316 µM
[6] = second compound 0.1 µM, first compound 0.1 µM
[7] = second compound 0.1 µM, first compound 0.316 µM
[8] = second compound 0.1 µM, first compound 1 µM
[9] = second compound 0.316 µM, first compound 0.0316 µM
[10] = second compound 0.316 µM, first compound 0.1 µM
[11] = second compound 0.316 µM, first compound 0.316 µM
[12] = second compound 0.316 µM, first compound 1 µM
[13] = second compound 1 µM, first compound 0.0316 µM
[14] = second compound 1 µM, first compound 0.1 µM
[15] = second compound 1 µM, first compound 0.316 µM
[16] = second compound 1 µM, first compound 1 µM
[17] = second compound 3.16 µM, first compound 0.0316 µM
[18] = second compound 3.16 µM, first compound 0.1 µM
[19] = second compound 3.16 µM, first compound 0.316 µM
[20] = second compound 3.16 µM, first compound 1 µM
[21] = second compound 10 µM, first compound 0.0316 µM
[22] = second compound 10 µM, first compound 0.1 µM
[23] = second compound 10 µM, first compound 0.316 µM
[24] = second compound 10 µM, first compound 1 µM
[25] = second compound 0.0316 µM, first compound 3.16 µM
[26] = second compound 0.0316 µM, first compound 10 µM
[27] = second compound 0.1 µM, first compound 3.16 µM
[28] = second compound 0.1 µM, first compound 10 µM
[29] = second compound 0.316 µM, first compound 3.16 µM
[30] = second compound 0.316 µM, first compound 10 µM
[31] = second compound 1 µM, first compound 3.16 µM
[32] = second compound 1 µM, first compound 10 µM
[33] = second compound 3.16 µM, first compound 3.16 µM
[34] = second compound 3.16 µM, first compound 10 µM
[35] = second compound 10 µM, first compound 3.16 µM
[36] = second compound 10 µM, first compound 10 µM
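Further: spheroids exposed to compounds for seven days.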
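Wherever viability, T/C is given: 100% = DMSO vehicle control viability.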

**Q.** What does the source list for `COc1cccc(OCCCN)c1-c1cc(Nc2cnc(C#N)cn2)n[nH]1` + Nc1ccc(C#CCN(C(=O)Cc2ncc(C(F)(F)F)cc2C(F)(F)F)c2ccc(F)cc2)nn1?
**A.** IC50 (second compound 0.0316 µM): > 1 µM; IC50 (second compound 0.1 µM): > 1 µM; IC50 (second compound 0.316 µM): > 1 µM; IC50 (second compound 1 µM): > 1 µM; IC50 (second compound 3.16 µM): > 1 µM; IC50 (second compound 10 µM): 0.252 µM; viability, T/C (second compound 0.0316 µM, first compound 0.00316 µM): 106%; viability, T/C (second compound 0.0316 µM, first compound 0.01 µM): 99.7%; viability, T/C [1]: 94.4%; viability, T/C [2]: 82.8%; viability, T/C [3]: 68.8%; viability, T/C [4]: 53.5%; viability, T/C (second compound 0.1 µM, first compound 0.00316 µM): 115%; viability, T/C (second compound 0.1 µM, first compound 0.01 µM): 94.1%; viability, T/C [5]: 88.7%; viability, T/C [6]: 85.7%; viability, T/C [7]: 66.3%; viability, T/C [8]: 51.9%; viability, T/C (second compound 0.316 µM, first compound 0.00316 µM): 104%; viability, T/C (second compound 0.316 µM, first compound 0.01 µM): 101%; viability, T/C [9]: 80.9%; viability, T/C [10]: 82.1%; viability, T/C [11]: 73.6%; viability, T/C [12]: 49.7%; viability, T/C (second compound 1 µM, first compound 0.00316 µM): 105%; viability, T/C (second compound 1 µM, first compound 0.01 µM): 94.2%; viability, T/C [13]: 91.6%; viability, T/C [14]: 85.4%; viability, T/C [15]: 70.3%; viability, T/C [16]: 50.7%; viability, T/C (second compound 3.16 µM, first compound 0.00316 µM): 95.3%; viability, T/C (second compound 3.16 µM, first compound 0.01 µM): 90.1%; viability, T/C [17]: 80%; viability, T/C [18]: 69%; viability, T/C [19]: 59.4%; viability, T/C [20]: 50.2%; viability, T/C (second compound 10 µM, first compound 0.00316 µM): 95.8%; viability, T/C (second compound 10 µM, first compound 0.01 µM): 86.2%; viability, T/C [21]: 69.7%; viability, T/C [22]: 59%; viability, T/C [23]: 46.6%; viability, T/C [24]: 44.3%

**Q.** Which results are given for `O=C(c1cc(Cc2n[nH]c(=O)c3ccccc23)ccc1F)N1CCN(C(=O)C2CC2)CC1` + Nc1ccc(C#CCN(C(=O)Cc2ncc(C(F)(F)F)cc2C(F)(F)F)c2ccc(F)cc2)nn1?
**A.** IC50 (second compound 0.0316 µM): > 10 µM; IC50 (second compound 0.1 µM): > 10 µM; IC50 (second compound 0.316 µM): > 10 µM; IC50 (second compound 1 µM): > 10 µM; IC50 (second compound 3.16 µM): > 10 µM; IC50 (second compound 10 µM): > 10 µM; viability, T/C [1]: 106%; viability, T/C [2]: 104%; viability, T/C [3]: 101%; viability, T/C [4]: 103%; viability, T/C [25]: 110%; viability, T/C [26]: 106%; viability, T/C [5]: 108%; viability, T/C [6]: 103%; viability, T/C [7]: 105%; viability, T/C [8]: 112%; viability, T/C [27]: 103%; viability, T/C [28]: 102%; viability, T/C [9]: 99.9%; viability, T/C [10]: 102%; viability, T/C [11]: 102%; viability, T/C [12]: 103%; viability, T/C [29]: 114%; viability, T/C [30]: 102%; viability, T/C [13]: 103%; viability, T/C [14]: 100%; viability, T/C [15]: 98.7%; viability, T/C [16]: 95.9%; viability, T/C [31]: 113%; viability, T/C [32]: 106%; viability, T/C [17]: 103%; viability, T/C [18]: 97.7%; viability, T/C [19]: 99.9%; viability, T/C [20]: 103%; viability, T/C [33]: 117%; viability, T/C [34]: 104%; viability, T/C [21]: 95.8%; viability, T/C [22]: 105%; viability, T/C [23]: 107%; viability, T/C [24]: 96.6%; viability, T/C [35]: 97.6%; viability, T/C [36]: 96.1%

**Q.** What does the source list for `O=c1[nH]cc(F)c(=O)[nH]1` + Nc1ccc(C#CCN(C(=O)Cc2ncc(C(F)(F)F)cc2C(F)(F)F)c2ccc(F)cc2)nn1?
**A.** IC50 (second compound 0.0316 µM): > 10 µM; IC50 (second compound 0.1 µM): > 10 µM; IC50 (second compound 0.316 µM): > 10 µM; IC50 (second compound 1 µM): > 10 µM; IC50 (second compound 3.16 µM): > 10 µM; IC50 (second compound 10 µM): > 10 µM; viability, T/C [1]: 111%; viability, T/C [2]: 111%; viability, T/C [3]: 98.8%; viability, T/C [4]: 102%; viability, T/C [25]: 112%; viability, T/C [26]: 106%; viability, T/C [5]: 111%; viability, T/C [6]: 106%; viability, T/C [7]: 95.1%; viability, T/C [8]: 106%; viability, T/C [27]: 111%; viability, T/C [28]: 100%; viability, T/C [9]: 110%; viability, T/C [10]: 105%; viability, T/C [11]: 99.5%; viability, T/C [12]: 112%; viability, T/C [29]: 106%; viability, T/C [30]: 90.9%; viability, T/C [13]: 104%; viability, T/C [14]: 98.8%; viability, T/C [15]: 90.5%; viability, T/C [16]: 107%; viability, T/C [31]: 107%; viability, T/C [32]: 99.1%; viability, T/C [17]: 98.7%; viability, T/C [18]: 107%; viability, T/C [19]: 97.6%; viability, T/C [20]: 93.2%; viability, T/C [33]: 103%; viability, T/C [34]: 108%; viability, T/C [21]: 110%; viability, T/C [22]: 103%; viability, T/C [23]: 98%; viability, T/C [24]: 97.5%; viability, T/C [35]: 96.7%; viability, T/C [36]: 101%
